Experiments:
Assay type in all cases: biochemical
GST-JAK3(811-1124) = GST-JAK3(811-1124) (Homo sapiens (Human), UniProt P52333); test: Caliper mobility shift kinase assay, JAK3; conditions: JAK3tide 2 μM, ATP 80 or 18 μM, 60 minutes at 30° C.
From the text: (§1) Measurement of the Effect on the JAK Enzyme
(§2) All four kinases of the JAK/TYK-kinase family were used as purified recombinant GST-fusion proteins, containing the active kinase domains. GST-JAK1(866-1154), GST-JAK3(811-1124), and GST-TYK2(888-1187) were expressed and purified by affinity chromatography at the EPK biology unit.
(§3) The kinase assays were based on the Caliper mobility shift assay using the LabChip 3000 systems. This technology is similar to capillary electrophoresis and uses charge driven separation of substrate and product in a microfluidic chip.
(§4) All kinase reactions were performed in 384 well microtiter plates in a total reaction volume of
18 μI. The assay plates were prepared with 0.1 μI per well of test compound in the appropriate test concentration, as described under the section “preparation of compound dilutions”. The reactions were started by combining 9 μI of substrate mix (consisting of peptide and ATP) with 9 μI of kinase dilution. The reactions were incubated for 60 minutes at 30° C. and stopped by adding 70 μI of stop buffer (100 mM Hepes, 5% DMSO, 0.1% Coating reagent, 10 mM EDTA, 0.015% Brij 35).
Fluorescently labeled synthetic peptides were used as substrates in all reactions. A peptide derived from the sequence of IRS-1 (IRS-1 peptide, FITC-Ahx-[…]-NH2) was used for JAK1 and TYK2 and a peptide named JAK3tide (FITC-[…]-NH2) for JAK3. Specific assay conditions are described in Table 4:
(§5) The terminated reactions were transferred to the Caliper LabChip 3000 reader and the turnover of each reaction was measured by determining the substrate/product ratio.
(§6) Preparation of Compound Dilutions
(§7) Test compounds were dissolved in DMSO (10 mM) and transferred into 1.4 mL flatbottom or V-shaped Matrix tubes carrying a unique 2D matrix chip by individual compound hubs. The numbers of these chips were distinctively linked to the individual compound identification numbers. The stock solutions were stored at −20° C. if not used immediately. For the test procedure the vials were defrosted and identified by a scanner whereby a working sheet was generated that guided the subsequent working steps. Compound dilutions were made in 96 well plates. This format enabled the assay of maximally 40 individual test compounds at 8 concentrations (single points) including 4 reference compounds. The dilution protocol included the production of pre-dilution plates, master plates and assay plates:
(§8) Pre-dilution plates: 96 polypropylene well plates were used as pre-dilution plates. A total of 4 pre-dilution plates were prepared including 10 test compounds each on the plate positions A1-A10, one standard compound at A11 and one DMSO control at A12. All dilution steps were done on a HamiltonSTAR robot.
(§9) Master plates: 100 μI of individual compound dilutions including standard compound and controls of the 4 “pre-dilution plates” were transferred into a 384 “master plate” including the following concentrations 1′820, 564, 182, 54.6, 18.2, 5.46, 1.82 and 0.546 μM, respectively in 90% of DMSO.
Assay plates: Identical assay plates were then prepared by pipetting 100 nL of compound dilutions of the master plates into 384-well “assay plates”. In the following the compounds were mixed with 9 μI of assays components plus 9 μI enzyme corresponding to a 1:181 dilution steps enabling the final concentration of 10, 3.0, 1.0, 0.3, 0.1, 0.03, 0.01 and 0.003 μM, respectively. The preparation of the master plates were handled by the Matrix PlateMate Plus robot and replication of assay plates by the HummingBird robot.

GST-JAK1(866-1154) = GST-JAK1(866-1154) (Homo sapiens (Human), UniProt P23458); test: Caliper mobility shift kinase assay, JAK1; conditions: IRS-1 peptide 5 μM, ATP 40 μM, 60 minutes at 30° C.
From the text: as §1, §2, §3, §4
(§10) 18 μI. […] The reactions were started by combining 9 μI of substrate mix (consisting of peptide and ATP) with 9 μI of kinase dilution. The reactions were incubated for 60 minutes at 30° C. and stopped by adding 70 μI of stop buffer (100 mM Hepes, 5% DMSO, 0.1% Coating reagent, 10 mM EDTA, 0.015% Brij 35).
(§11) Fluorescently labeled synthetic peptides were used as substrates in all reactions. […] Specific assay conditions are described in Table 4:
as §5, §6, §7, §8, §9
(§12) Assay plates: Identical assay plates were then prepared by pipetting 100 nL of compound dilutions of the master plates into 384-well “assay plates”. […] The preparation of the master plates were handled by the Matrix PlateMate Plus robot and replication of assay plates by the HummingBird robot.

GST-TYK2(888-1187) = GST-TYK2(888-1187) (Homo sapiens (Human), UniProt P29597); test: Caliper mobility shift kinase assay, TYK2; conditions: IRS-1 peptide 5 μM, ATP 30 μM, 60 minutes at 30° C.
From the text: as §1, §2, §3, §4, §10, §11, §5, §6, §7, §8, §9, §12

GST-TYK2(888-1187), sequence (P29597 888-1187): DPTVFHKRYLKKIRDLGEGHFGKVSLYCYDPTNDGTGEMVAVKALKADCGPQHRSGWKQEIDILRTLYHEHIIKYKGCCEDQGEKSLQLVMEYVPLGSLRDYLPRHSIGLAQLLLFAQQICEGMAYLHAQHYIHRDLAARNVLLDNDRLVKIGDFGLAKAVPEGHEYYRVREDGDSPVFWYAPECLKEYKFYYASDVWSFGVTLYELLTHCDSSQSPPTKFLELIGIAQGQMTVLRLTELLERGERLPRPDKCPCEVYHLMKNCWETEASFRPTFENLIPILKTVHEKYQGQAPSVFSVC
GST-JAK3(811-1124), sequence (P52333 811-1124): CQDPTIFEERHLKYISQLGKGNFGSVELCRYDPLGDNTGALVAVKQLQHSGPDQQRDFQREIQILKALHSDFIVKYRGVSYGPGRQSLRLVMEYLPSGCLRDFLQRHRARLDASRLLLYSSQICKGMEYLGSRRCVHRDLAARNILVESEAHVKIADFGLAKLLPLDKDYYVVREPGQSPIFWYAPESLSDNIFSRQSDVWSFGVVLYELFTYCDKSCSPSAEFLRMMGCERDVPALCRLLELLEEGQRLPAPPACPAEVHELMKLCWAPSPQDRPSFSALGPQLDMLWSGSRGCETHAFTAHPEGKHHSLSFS
GST-JAK1(866-1154), sequence (P23458 866-1154): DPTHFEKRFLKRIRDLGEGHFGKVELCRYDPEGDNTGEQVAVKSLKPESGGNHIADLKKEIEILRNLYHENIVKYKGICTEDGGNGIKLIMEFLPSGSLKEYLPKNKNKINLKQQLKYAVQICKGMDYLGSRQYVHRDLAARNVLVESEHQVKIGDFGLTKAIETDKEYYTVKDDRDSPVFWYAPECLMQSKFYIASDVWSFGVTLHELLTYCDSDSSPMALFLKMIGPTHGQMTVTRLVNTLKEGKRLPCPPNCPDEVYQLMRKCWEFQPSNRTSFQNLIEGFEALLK

| Structure (SMILES) | IC50 (GST-JAK3(811-1124)) [µM] | IC50 (GST-JAK1(866-1154)) [µM] | IC50 (GST-TYK2(888-1187)) [µM] |
| --- | --- | --- | --- |
| CNS(=O)(=O)C[C@H]1CC[C@H](N(C)c2ncnc3[nH]c(C)nc23)CC1 [compound 1] | 7.93 |  |  |
| CNS(=O)(=O)C[C@H]1CC[C@H](N(C)c2ncnc3[nH]cnc23)CC1 [compound 2, N-methyl-1-[trans-4-[methyl(9H-purin-6-yl)amino]cyclohexyl]methanesulfonamide] | 1.89 | 0.582 | 4.59 |
| CNS(=O)(=O)C[C@H]1CC[C@H](N(C)c2ncnc3[nH]ncc23)CC1 [compound 3] | > 10 | > 10 | > 10 |
| CNS(=O)(=O)C[C@H]1CC[C@H](N(C)c2ncnc3[nH]c(-c4ccccc4)nc23)CC1 [compound 4] | > 10 | > 10 | > 10 |
| CNS(=O)(=O)C[C@H]1CC[C@H](N(C)c2ncnc3[nH]c(Cc4ccccc4)nc23)CC1 [compound 5] | > 10 | > 10 | > 10 |
| CNS(=O)(=O)C[C@H]1CC[C@H](Oc2ncnn3cccc23)CC1 [compound 6] | > 10 | > 10 | > 10 |
| CNS(=O)(=O)C[C@H]1CC[C@H](N(C)c2nc(N)ncc2Br)CC1 [compound 7] | > 10 | > 10 | > 10 |
| CNS(=O)(=O)C[C@H]1CC[C@H](Nc2ncnc3sccc23)CC1 [compound 8] | > 10 | > 10 | > 10 |
| CNS(=O)(=O)C[C@H]1CC[C@H](N(C)c2ncnc3sccc23)CC1 [compound 9] | > 10 | > 10 | > 10 |
| CNS(=O)(=O)C[C@H]1CC[C@H](N(C)c2cc(Cl)nc(N)n2)CC1 [compound 10] | > 10 | > 10 | > 10 |
| CNS(=O)(=O)C[C@H]1CC[C@H](Nc2ccnc(N)n2)CC1 [compound 11] | > 10 | > 10 | > 10 |
| CNS(=O)(=O)C[C@H]1CC[C@H](Nc2nc(N)ncc2C)CC1 [compound 12] | > 10 | > 10 | > 10 |
| CNS(=O)(=O)C[C@H]1CC[C@H](Nc2nc(N)ncc2Br)CC1 [compound 13] | > 10 |  | 6 |
| CNS(=O)(=O)C[C@H]1CC[C@H](Nc2c(C#N)cnc3sccc23)CC1 [compound 14] | > 10 | > 10 | > 10 |
| CNS(=O)(=O)C[C@H]1CC[C@H](Nc2ncnn3cccc23)CC1 [compound 15] | > 10 | > 10 | > 10 |
| CNS(=O)(=O)C[C@H]1CC[C@H](N(C)c2ccnc(N)n2)CC1 [compound 16] | > 10 | > 10 | > 10 |
| CNS(=O)(=O)C[C@H]1CC[C@H](N(C)c2c(C#N)cnc3sccc23)CC1 [compound 17] | > 10 | > 10 | > 10 |
| CNS(=O)(=O)C[C@H]1CC[C@H](N(C)c2c([N+](=O)[O-])cnc3[nH]ccc23)CC1 [compound 18] | 1.2 |  | 0.39 |
| CNS(=O)(=O)C[C@H]1CC[C@H](Oc2ncnc3sccc23)CC1 [compound 19] | > 10 | > 10 | > 10 |
| CNS(=O)(=O)C[C@H]1CC[C@H](Oc2c(C#N)cnc3sccc23)CC1 [compound 20] | > 10 | > 10 | > 10 |
| CNS(=O)(=O)C[C@H]1CC[C@H](N(C)c2nc(N)ncc2-c2ccccc2)CC1 [compound 21] | > 10 | > 10 | > 10 |
| CNS(=O)(=O)C[C@H]1CC[C@H](n2cnc3cnc4[nH]ccc4c32)CC1 [compound 22, 1-[trans-4-(imidazo[4,5-d]pyrrolo[2,3-b]pyridin-1(6H)-yl)cyclohexyl]-N-methylmethanesulfonamide] | 0.26 | 0.01 | 0.13 |
| CNS(=O)(=O)C[C@H]1CC[C@H](Nc2nc(N)ncc2-c2ccccc2)CC1 [compound 23] | > 10 | > 10 | > 10 |
| CNS(=O)(=O)C[C@H]1CC[C@H](N(C)c2c(C#N)cnn3cccc23)CC1 [compound 24] | > 10 | 0.93 | 8.5 |
| CNS(=O)(=O)C[C@H]1CC[C@H](Oc2c([N+](=O)[O-])cnc3[nH]ccc23)CC1 [compound 25, N-methyl-1-[trans-4-[(5-nitro-1H-pyrrolo[2,3-b]pyridin-4-yl)oxy]cyclohexyl]methanesulfonamide] | 3.6 | 0.071 |  |
| CNS(=O)(=O)C[C@H]1CC[C@H](N(C)c2c(C#N)cnc3[nH]ccc23)CC1 [compound 26, 1-[trans-4-[(5-cyano-1H-pyrrolo[2,3-b]pyridin-4-yl)-methyl-amino]cyclohexyl]-N-methyl-methanesulfonamide] | 3 | 0.034 | 0.84 |
| CNS(=O)(=O)C[C@H]1CC[C@H](Nc2c(C#N)cnn3cccc23)CC1 [compound 27] | > 10 | 1.8 |  |
| CNS(=O)(=O)C[C@H]1CC[C@H](N(C)c2ncnn3cccc23)CC1 [compound 28] | > 10 | 0.55 | 3.2 |
